# Results published in PubChem BioAssay (NCI).
#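 Growth conditions: 96-well plates. Treatment: test compound, 48 hours, 5 concentrations. Analysis: linear interpolation between bracketing concentrations; unreached endpoints set to highest concentration. The concentration for full growth arrest is given as TGI.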
# Key:
# Experiment in all cases: growth of human tumour cells (NCI), 48 h
# CCRF-CEM leukemia = tested on: CCRF-CEM leukemia
# A498 renal = tested on: A498 renal
# MALME-3M melanoma = tested on: MALME-3M melanoma
# SK-MEL-5 melanoma = tested on: SK-MEL-5 melanoma
# ACHN renal = tested on: ACHN renal
# HOP-92 NSCLC = tested on: HOP-92 NSCLC
# HL-60(TB) leukemia = tested on: HL-60(TB) leukemia
# SF-295 CNS = tested on: SF-295 CNS
# HT29 colon = tested on: HT29 colon
# NCI-H226 lung = tested on: NCI-H226 lung
# LOX IMVI melanoma = tested on: LOX IMVI melanoma
# HCC-2998 colon = tested on: HCC-2998 colon
# EKVX NSCLC = tested on: EKVX NSCLC
# U251 CNS = tested on: U251 CNS
# MDA-MB-435 = tested on: MDA-MB-435
# MDA-N = tested on: MDA-N
# A549 NSCLC = tested on: A549 NSCLC
# SR leukemia = tested on: SR leukemia
# SF-268 CNS = tested on: SF-268 CNS
# HCT-116 colon = tested on: HCT-116 colon
# T-47D breast = tested on: T-47D breast
# SN12C renal = tested on: SN12C renal
# KM12 colon = tested on: KM12 colon
# SK-OV-3 ovarian = tested on: SK-OV-3 ovarian
# K-562 leukemia = tested on: K-562 leukemia
# NCI-H460 lung = tested on: NCI-H460 lung
# UACC-257 melanoma = tested on: UACC-257 melanoma
# COLO 205 colon = tested on: COLO 205 colon
# NCI/ADR-RES ovarian = tested on: NCI/ADR-RES ovarian
# OVCAR-8 ovarian = tested on: OVCAR-8 ovarian
# DU-145 prostate = tested on: DU-145 prostate
# SNB-19 CNS = tested on: SNB-19 CNS
# NCI-H23 lung = tested on: NCI-H23 lung
# HS 578T breast = tested on: HS 578T breast
# PC-3 prostate = tested on: PC-3 prostate
# MCF7 breast = tested on: MCF7 breast
# RXF 393 renal = tested on: RXF 393 renal
# SF-539 CNS = tested on: SF-539 CNS
# CAKI-1 renal = tested on: CAKI-1 renal
# OVCAR-3 ovarian = tested on: OVCAR-3 ovarian
# UACC-62 melanoma = tested on: UACC-62 melanoma
# RPMI-8226 leukemia = tested on: RPMI-8226 leukemia
# BT-549 breast = tested on: BT-549 breast
# IGROV1 ovarian = tested on: IGROV1 ovarian
# SNB-75 CNS = tested on: SNB-75 CNS
# 786-0 renal = tested on: 786-0 renal
# OVCAR-5 ovarian = tested on: OVCAR-5 ovarian
# MOLT-4 leukemia = tested on: MOLT-4 leukemia
# NCI-H522 lung = tested on: NCI-H522 lung
# HCT-15 colon = tested on: HCT-15 colon
# SK-MEL-28 melanoma = tested on: SK-MEL-28 melanoma
# SK-MEL-2 melanoma = tested on: SK-MEL-2 melanoma
# MDA-MB-231 breast = tested on: MDA-MB-231 breast
# SW-620 colon = tested on: SW-620 colon
# UO-31 renal = tested on: UO-31 renal
# M14 melanoma = tested on: M14 melanoma
# TK-10 renal = tested on: TK-10 renal
# HOP-62 NSCLC = tested on: HOP-62 NSCLC
# OVCAR-4 ovarian = tested on: OVCAR-4 ovarian
smiles,measurement,setting,value
CCOC(=O)C1(C(C)=O)OC(=O)c2cnccc21 (stereo unspecified),TGI,CCRF-CEM leukemia,> 100 µM
same,TGI,A498 renal,> 100 µM
same,TGI,MALME-3M melanoma,> 100 µM
same,TGI,SK-MEL-5 melanoma,> 100 µM
same,TGI,ACHN renal,> 100 µM
same,TGI,HOP-92 NSCLC,> 100 µM
same,TGI,HL-60(TB) leukemia,> 100 µM
same,TGI,SF-295 CNS,> 100 µM
same,TGI,HT29 colon,> 100 µM
same,TGI,NCI-H226 lung,> 100 µM
same,TGI,LOX IMVI melanoma,> 100 µM
same,TGI,HCC-2998 colon,> 100 µM
same,TGI,EKVX NSCLC,> 100 µM
same,TGI,U251 CNS,> 100 µM
same,TGI,MDA-MB-435,> 100 µM
same,TGI,MDA-N,> 100 µM
same,TGI,A549 NSCLC,> 100 µM
same,TGI,SR leukemia,> 100 µM
same,TGI,SF-268 CNS,> 100 µM
same,TGI,HCT-116 colon,> 100 µM
same,TGI,T-47D breast,> 100 µM
same,TGI,SN12C renal,> 100 µM
same,TGI,KM12 colon,> 100 µM
same,TGI,SK-OV-3 ovarian,> 100 µM
same,TGI,K-562 leukemia,> 100 µM
same,TGI,NCI-H460 lung,> 100 µM
same,TGI,UACC-257 melanoma,> 100 µM
same,TGI,COLO 205 colon,> 100 µM
same,TGI,NCI/ADR-RES ovarian,> 100 µM
same,TGI,OVCAR-8 ovarian,> 100 µM
same,TGI,DU-145 prostate,> 100 µM
same,TGI,SNB-19 CNS,> 100 µM
same,TGI,NCI-H23 lung,> 100 µM
same,TGI,HS 578T breast,> 100 µM
same,TGI,PC-3 prostate,> 100 µM
same,TGI,MCF7 breast,> 100 µM
same,TGI,RXF 393 renal,> 100 µM
same,TGI,SF-539 CNS,> 100 µM
same,TGI,CAKI-1 renal,> 100 µM
same,TGI,OVCAR-3 ovarian,> 100 µM
same,TGI,UACC-62 melanoma,> 100 µM
same,TGI,RPMI-8226 leukemia,> 100 µM
same,TGI,BT-549 breast,> 100 µM
same,TGI,IGROV1 ovarian,> 100 µM
same,TGI,SNB-75 CNS,> 100 µM
same,TGI,786-0 renal,> 100 µM
same,TGI,OVCAR-5 ovarian,> 100 µM
same,TGI,MOLT-4 leukemia,> 100 µM
same,TGI,NCI-H522 lung,> 100 µM
same,TGI,HCT-15 colon,> 100 µM
same,TGI,SK-MEL-28 melanoma,> 100 µM
same,TGI,SK-MEL-2 melanoma,> 100 µM
same,TGI,MDA-MB-231 breast,> 100 µM
same,TGI,SW-620 colon,> 100 µM
same,TGI,UO-31 renal,> 100 µM
same,TGI,M14 melanoma,> 100 µM
C=C1C2CC[C@@](C)(O)C2[C@H]2OC(=O)C(=C)[C@@H]2C[C@H]1O (stereo partly specified),TGI,CCRF-CEM leukemia,17.9 µM
same,TGI,A498 renal,> 100 µM
same,TGI,MALME-3M melanoma,30.5 µM
same,TGI,SK-MEL-5 melanoma,28.8 µM
same,TGI,ACHN renal,22.7 µM
same,TGI,HOP-92 NSCLC,88.9 µM
same,TGI,TK-10 renal,37.8 µM
same,TGI,HL-60(TB) leukemia,> 100 µM
same,TGI,SF-295 CNS,> 100 µM
same,TGI,HT29 colon,32.7 µM
same,TGI,NCI-H226 lung,40.1 µM
same,TGI,LOX IMVI melanoma,35 µM
same,TGI,HOP-62 NSCLC,> 100 µM
same,TGI,HCC-2998 colon,37.3 µM
same,TGI,EKVX NSCLC,> 100 µM
same,TGI,U251 CNS,> 100 µM
same,TGI,MDA-MB-435,> 100 µM
same,TGI,MDA-N,91.1 µM
same,TGI,A549 NSCLC,> 100 µM
same,TGI,SR leukemia,> 100 µM
same,TGI,SF-268 CNS,> 100 µM
same,TGI,HCT-116 colon,> 100 µM
same,TGI,T-47D breast,42.1 µM
same,TGI,SN12C renal,59 µM
same,TGI,KM12 colon,46.2 µM
same,TGI,SK-OV-3 ovarian,80.2 µM
same,TGI,K-562 leukemia,> 100 µM
same,TGI,UACC-257 melanoma,41.8 µM
same,TGI,COLO 205 colon,37.6 µM
same,TGI,OVCAR-4 ovarian,30.3 µM
same,TGI,NCI/ADR-RES ovarian,45.8 µM
same,TGI,OVCAR-8 ovarian,56.5 µM
same,TGI,DU-145 prostate,35.5 µM
same,TGI,SNB-19 CNS,> 100 µM
same,TGI,NCI-H23 lung,36 µM
same,TGI,HS 578T breast,71.5 µM
same,TGI,PC-3 prostate,> 100 µM
same,TGI,MCF7 breast,27.3 µM
same,TGI,RXF 393 renal,71.9 µM
same,TGI,SF-539 CNS,27.2 µM
same,TGI,CAKI-1 renal,27.2 µM
same,TGI,OVCAR-3 ovarian,64.1 µM
same,TGI,UACC-62 melanoma,30.1 µM
same,TGI,RPMI-8226 leukemia,> 100 µM
same,TGI,BT-549 breast,24.8 µM
same,TGI,IGROV1 ovarian,> 100 µM
same,TGI,SNB-75 CNS,> 100 µM
same,TGI,786-0 renal,39.2 µM
same,TGI,OVCAR-5 ovarian,> 100 µM
same,TGI,MOLT-4 leukemia,60 µM
same,TGI,NCI-H522 lung,35.6 µM
same,TGI,HCT-15 colon,45.9 µM
same,TGI,SK-MEL-28 melanoma,72.8 µM
same,TGI,SK-MEL-2 melanoma,50.7 µM
same,TGI,MDA-MB-231 breast,80.1 µM
same,TGI,SW-620 colon,> 100 µM
same,TGI,UO-31 renal,31.5 µM
same,TGI,M14 melanoma,31.9 µM
O=[N+]([O-])c1ccc(/C(=C\c2ccccc2)Cn2ccnc2)cc1,TGI,CCRF-CEM leukemia,> 100 µM
same,TGI,A498 renal,72 µM
same,TGI,MALME-3M melanoma,> 100 µM
same,TGI,SK-MEL-5 melanoma,94.4 µM
same,TGI,ACHN renal,> 100 µM
same,TGI,HOP-92 NSCLC,79.9 µM
same,TGI,TK-10 renal,> 100 µM
same,TGI,HL-60(TB) leukemia,46.4 µM
same,TGI,SF-295 CNS,> 100 µM
same,TGI,HT29 colon,67.1 µM
same,TGI,NCI-H226 lung,> 100 µM
same,TGI,LOX IMVI melanoma,54.1 µM
same,TGI,HOP-62 NSCLC,> 100 µM
same,TGI,HCC-2998 colon,> 100 µM
same,TGI,EKVX NSCLC,> 100 µM
same,TGI,U251 CNS,> 100 µM
same,TGI,MDA-MB-435,> 100 µM
same,TGI,MDA-N,75.1 µM
same,TGI,A549 NSCLC,> 100 µM
same,TGI,SR leukemia,> 100 µM
same,TGI,HCT-116 colon,> 100 µM
same,TGI,T-47D breast,> 100 µM
same,TGI,SN12C renal,> 100 µM
same,TGI,KM12 colon,> 100 µM
same,TGI,SK-OV-3 ovarian,> 100 µM
same,TGI,K-562 leukemia,69.2 µM
same,TGI,NCI-H460 lung,> 100 µM
same,TGI,UACC-257 melanoma,> 100 µM
same,TGI,COLO 205 colon,30 µM
same,TGI,OVCAR-4 ovarian,> 100 µM
same,TGI,NCI/ADR-RES ovarian,66 µM
same,TGI,OVCAR-8 ovarian,> 100 µM
same,TGI,DU-145 prostate,> 100 µM
same,TGI,SNB-19 CNS,> 100 µM
same,TGI,NCI-H23 lung,> 100 µM
same,TGI,HS 578T breast,69.9 µM
same,TGI,PC-3 prostate,95.7 µM
same,TGI,MCF7 breast,> 100 µM
same,TGI,RXF 393 renal,> 100 µM
same,TGI,SF-539 CNS,> 100 µM
same,TGI,CAKI-1 renal,45.6 µM
same,TGI,UACC-62 melanoma,> 100 µM
same,TGI,RPMI-8226 leukemia,> 100 µM
same,TGI,BT-549 breast,87.8 µM
same,TGI,IGROV1 ovarian,> 100 µM
same,TGI,SNB-75 CNS,86.4 µM
same,TGI,786-0 renal,> 100 µM
same,TGI,OVCAR-5 ovarian,> 100 µM
same,TGI,MOLT-4 leukemia,> 100 µM
same,TGI,NCI-H522 lung,57.8 µM
same,TGI,HCT-15 colon,> 100 µM
same,TGI,SK-MEL-28 melanoma,> 100 µM
same,TGI,SK-MEL-2 melanoma,61.1 µM
same,TGI,MDA-MB-231 breast,87.8 µM
same,TGI,SW-620 colon,> 100 µM
same,TGI,UO-31 renal,> 100 µM
same,TGI,M14 melanoma,> 100 µM
